Where only a bound is given, the exact number is not on record here.

Data set [1] can be described thus: Inhibition of alpha-Glucosidase (unknown origin) using pNPG as substrate incubated for 30 mins. Details: species or system Homo sapiens.
Data set [2] has as its target T1, Tyrosine-protein phosphatase non-receptor type 1 (Homo sapiens) (UniProt P18031).
T1 sequence (whole entry): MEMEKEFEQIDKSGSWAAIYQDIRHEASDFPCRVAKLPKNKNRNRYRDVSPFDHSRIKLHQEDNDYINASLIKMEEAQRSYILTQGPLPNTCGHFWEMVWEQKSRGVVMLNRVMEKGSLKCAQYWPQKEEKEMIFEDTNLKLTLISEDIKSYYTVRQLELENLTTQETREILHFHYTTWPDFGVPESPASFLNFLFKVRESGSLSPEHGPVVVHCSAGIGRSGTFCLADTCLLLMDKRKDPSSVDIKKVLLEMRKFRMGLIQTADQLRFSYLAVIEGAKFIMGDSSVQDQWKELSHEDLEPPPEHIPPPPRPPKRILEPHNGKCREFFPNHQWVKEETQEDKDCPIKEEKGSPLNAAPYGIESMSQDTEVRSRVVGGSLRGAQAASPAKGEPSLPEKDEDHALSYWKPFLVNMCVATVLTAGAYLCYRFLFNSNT
The data set can be described thus: Inhibition of recombinant human PTP1B (1 to 321 residues) expressed in Escherichia coli at 10 uM using p-nitrophenyl phosphate as substrate incubated for 30 mins relative to control.

The species entered for a further data set is Homo sapiens. The data set can be described thus: Inhibition of alpha-Glucosidase (unknown origin) at 10 uM using pNPG as substrate incubated for 30 mins relative to control.
Data set [3] in a line: Cytotoxicity against human insulin resistant HepG2 cells assessed as cell viability at 10 uM by CCK8 assay relative to control. The following applies: read-out: Activity. It is filed as cell-based. Background: Tetrazolium assays rely on reduction of a dye to a coloured formazan, in cell work by metabolically active cells.
The target of data set [4] is T2, Tyrosine-protein phosphatase non-receptor type 1 (Homo sapiens, UniProt P18031).
T2 sequence (P18031 whole entry): T1 sequence (whole entry)
The data set can be described thus: Inhibition of recombinant human PTP1B (1 to 321 residues) expressed in Escherichia coli using p-nitrophenyl phosphate as substrate incubated for 30 mins.

Turning to `CC(C)=CCc1cc(-c2oc3cc(O)c(CC=C(C)C)c(O)c3c(=O)c2O)ccc1O`, in data set [1], the IC50 (commonly the concentration at which inhibition is half-maximal) came to 3.2 µM.
`CC1(C)C=Cc2cc(-c3coc4cc(O)cc(O)c4c3=O)cc(O)c2O1`: the inhibition (usually the change of the read-out against control, counted positive when it falls) in data set [2] was above 60%; in the data set listed under Homo sapiens it was above 40%. In data set [3], the viability at 10 µM was 80 to 110%.
`COc1c(CC=C(C)C)c(O)cc2oc(=O)c(-c3ccc(O)cc3O)cc12` [GLYCYCOUMARIN] returned an IC50 in data set [1] of 0.1 µM. Moreover, the inhibition in data set [2] is above 60%; in the data set listed under Homo sapiens it was above 40%. Moreover, the viability at 10 µM in data set [3] is 80 to 110%.
Take `Oc1ccc2c(c1)OC[C@@H](c1cc3c(cc1O)OCO3)C2`: in data set [1], the IC50 was 3.8 µM.
Consider `COc1cc2c(c(O)c1CC=C(C)C)C(=O)C(c1ccc(O)c(CC=C(C)C)c1O)CO2` (stereo not drawn), for which the IC50 in data set [4] came to 4.3 µM. The inhibition in data set [2] was above 60%; in the data set filed under Homo sapiens, above 40%. Also, in data set [3], the viability at 10 µM is 80 to 110%.
In the case of `CC1(C)C=Cc2c(ccc([C@@H]3COc4cc(O)cc(O)c4C3=O)c2O)O1`, the inhibition in data set [2] is above 60%; in the data set listed under Homo sapiens, above 40%. Moreover, the viability at 10 µM in data set [3] lay in the range of 80 to 110%.
In the case of `COc1ccc([C@@H]2COc3cc(O)ccc3C2)c(O)c1`, the inhibition in data set [2] was above 60%; in the data set listed under Homo sapiens, above 40%. For the same molecule, the viability at 10 µM in data set [3] lay in the range of 80 to 110%.
Taken in the same sequence, the figures for `CC(C)=CCc1c(O)ccc([C@@]2(O)COc3cc(O)c(CC=C(C)C)c(O)c3C2=O)c1O` were above 60%, above 40% and 80 to 110%.
Taken in the same sequence, the figures for `CC(C)=CCc1cc([C@@H]2CC(=O)c3c(O)cc(O)cc3O2)ccc1O` were above 60%, above 40% and 80 to 110%.
On to `CC(C)=CCc1c(O)ccc(-c2coc3cc(O)c(CC=C(C)C)c(O)c3c2=O)c1O`, for which the half-inhibitory concentration (IC50) in data set [4] turned out to be 7.5 µM. For the same molecule, the inhibition was above 60% in data set [2] and above 40% in the data set filed under Homo sapiens. For the same molecule, the viability at 10 µM in data set [3] fell in the range of 80 to 110%.
With `COc1c(CC=C(C)C)c(O)cc2c1[C@@H]1Oc3cc(O)c(CC=C(C)C)cc3[C@@H]1CO2`, the IC50 in data set [4] worked out at 4.4 µM.
As to `COc1cc(O)c2c(=O)c(OC)c(-c3ccc(O)cc3)oc2c1` [KUMATAKENIN], the inhibition was above 60% in data set [2] and above 40% in the data set filed under Homo sapiens. In data set [3], the viability at 10 µM fell in the range of 80 to 110%.
Taken in the same sequence, the figures for `CC1(C)C=Cc2cc(/C=C/C(=O)c3ccc(O)cc3O)ccc2O1` were above 60%, above 40% and 80 to 110%.
Consider `CC(C)=CCc1c(O)ccc(-c2coc3c(CC=C(C)C)c(O)cc(O)c3c2=O)c1O`, for which the IC50 in data set [4] worked out at 7 µM.
For the molecule `COc1cc2oc(-c3ccc(O)cc3O)cc2c(OC)c1CC=C(C)C`, the IC50 in data set [4] amounted to 3.3 µM. The inhibition in data set [2] was above 60%; in the data set filed under Homo sapiens, above 40%. Moreover, the viability at 10 µM in data set [3] was in the range of 80 to 110%.
As for `COc1ccc([C@@H]2COc3cc(O)c(CC=C(C)C)cc3C2)c(O)c1`, the results for the inhibition (in data set [2]; in the data set listed under Homo sapiens) were above 60% and above 40%, respectively. In addition, the viability at 10 µM in data set [3] was 80 to 110%.
Take `COc1cc2c(c(OC)c1CC=C(C)C)C[C@H](c1ccc(O)c3c1OC(C)(C)C=C3)CO2`: the IC50 in data set [4] was 7.2 µM.
In the case of `C=C(C)[C@@H](O)Cc1c(O)ccc([C@@H]2COc3cc(OC)c(CC=C(C)C)c(OC)c3C2)c1O`, the IC50 in data set [4] is 6.7 µM. Besides, the results for the inhibition (in data set [2]; in the data set filed under Homo sapiens) were above 60% and above 40%, respectively. In addition, in data set [3], the viability at 10 µM lay within 80 to 110%.
As for `CC(C)=CCc1c(O)ccc(-c2coc3cc(O)cc(O)c3c2=O)c1O`, the inhibition in data set [2] is above 60%; in the data set listed under Homo sapiens, 20.1%. In addition, the viability at 10 µM in data set [3] was 80 to 110%.
The corresponding values for `O=c1c(-c2ccc(O)cc2)coc2cc(O)cc(O)c12` [GENISTEIN] are above 60%, 58.4% and 80 to 110%.
For the molecule `COc1cc2c(c(OC)c1CC=C(C)C)C[C@H](c1ccc(O)c(CC=C(C)C)c1O)CO2`, the inhibition was above 60% in data set [2] and above 40% in the data set filed under Homo sapiens. The viability at 10 µM in data set [3] is 80 to 110%.
The corresponding values for `CC(C)=CCc1c(O)ccc(C2COc3cc(O)c(CC=C(C)C)c(O)c3C2=O)c1O` (stereo not drawn) are above 60%, above 40% and 80 to 110%.
Taken in the same sequence, the figures for `CC1(C)C=Cc2cc(-c3coc4cc(O)cc(O)c4c3=O)ccc2O1` were above 60%, above 40% and 80 to 110%.
Regarding `COc1cc2occ(-c3ccc(O)cc3O)c(=O)c2c(O)c1CC=C(C)C`, the concentration for half-maximal inhibition (IC50) in data set [4] came out at 5.3 µM.
Molecule `CC(C)=CCc1cc(-c2coc3cc(O)cc(O)c3c2=O)ccc1O` registered an inhibition in the data set filed under Homo sapiens of 34.2%.
Regarding `COc1c(CC=C(C)C)c(O)cc2c1C[C@H](c1ccc(O)c(CC=C(C)C)c1O)CO2` [LICORICIDIN], the concentration for half-maximal inhibition (IC50) in data set [4] worked out at 5.9 µM.
For the molecule `C[C@H]1O[C@H](O[C@H]2[C@H](O)[C@@H](O)[C@@H](O[C@H]3[C@H](O)[C@@H](O)C(O)O[C@@H]3CO)O[C@@H]2CO)[C@H](O)[C@@H](O)[C@@H]1N[C@H]1C=C(CO)[C@@H](O)[C@H](O)[C@H]1O` (stereo partly drawn) [ACARBOSE], half-maximal inhibition in data set [1] (IC50) was put at 166 µM.
As to `CC(C)=CCc1cc(-c2coc3cc(O)c(CC=C(C)C)c(O)c3c2=O)cc(O)c1O`, the IC50 in data set [4] amounted to 7.7 µM.
Take `CC(C)=CCc1c(O)cc2oc(-c3ccc(O)cc3)c(O)c(=O)c2c1O` [LICOFLAVONOL]: the figures for the inhibition (in data set [2]; in the data set filed under Homo sapiens) were above 60% and above 40%, respectively. The viability at 10 µM in data set [3] is 80 to 110%.
Take `COc1cc(O)ccc1-c1cc2c(OC)c(CC=C(C)C)c(O)cc2o1`: the IC50 in data set [4] amounted to 5.3 µM. The inhibition in data set [2] is above 60%; in the data set filed under Homo sapiens it was above 40%. Besides, in data set [3], the viability at 10 µM was 80 to 110%.
Turning to `COc1cc(O)ccc1/C=C/C(=O)c1ccc(O)cc1` [ECHINATIN], the inhibition in data set [2] is above 60%; in the data set listed under Homo sapiens, above 40%. The viability at 10 µM in data set [3] lay within 80 to 110%.
Taken in the same sequence, the figures for `COc1cc2c(c(OC)c1CC=C(C)C)C[C@H](c1ccc(O)cc1O)CO2` [GLYASPERIN D] were above 60%, above 40% and 80 to 110%.
The corresponding values for `COc1ccc(C2COc3c(CC=C(C)C)c(O)cc(O)c3C2=O)c(O)c1` (stereo not drawn) are above 60%, above 40% and 80 to 110%.
As for `COc1c(-c2ccc(O)cc2)oc2cc(O)c(CC=C(C)C)c(O)c2c1=O`, the half-inhibitory concentration (IC50) in data set [4] came out at 4.5 µM.
As to `COc1c(CC=C(C)C)c(O)cc2c1[C@@H]1Oc3cc4c(cc3[C@@H]1CO2)C=CC(C)(C)O4`, in data set [4], the IC50 is 4.8 µM. For the same molecule, the inhibition in data set [2] is above 60%; in the data set listed under Homo sapiens, above 40%. In addition, the viability at 10 µM in data set [3] was in the range of 80 to 110%.
Take `COc1cc2oc(=O)c3c4ccc(O)cc4oc3c2c(OC)c1CC=C(C)C`: the inhibition in data set [2] was above 60%; in the data set filed under Homo sapiens, above 40%. Further, the viability at 10 µM in data set [3] was in the range of 80 to 110%.
The molecule `CC(C)=CCc1cc([C@@H]2COc3cc(O)c(CC=C(C)C)c(O)c3C2=O)ccc1O` came in with an inhibition in the data set listed under Homo sapiens above 40%.
On to `CC(C)=CCc1cc([C@@H]2CC(=O)c3c(O)cc(O)c(CC=C(C)C)c3O2)ccc1O` [LESPEDEZAFLAVANONE B], for which the IC50 in data set [4] stood at 2.1 µM. Further, the inhibition in data set [2] is above 60%; in the data set filed under Homo sapiens, above 40%. For the same molecule, the viability at 10 µM in data set [3] is 80 to 110%.

These data come from ChEMBL document CHEMBL4610094, “Prenylated Phenolic Compounds from the Aerial Parts of Glycyrrhiza uralensis as PTP1B and α-Glucosidase Inhibitors” (J Nat Prod, 2020).
